US20140128357A1, “METHODS OF PRODUCING AND USING BRASSINOSTEROIDS TO PROMOTE GROWTH, REPAIR AND MAINTENANCE OF SKELETAL MUSCLE AND SKIN” (Rutgers University, priority 2010, published 2014)
Like-named read-outs stand apart in the source and are kept apart here.

Tests used:
L6 rat myotubes [1] = assay: Protein synthesis, [3H]-phenylalanine incorporation in myotubes; format: cell-based; details: 10 μM; for Protein synthesis (% increase over control): 4 h
Procedure: (§1) In some aspects, cell culture experiments were carried out. Rat L6 skeletal muscle cell line CRL-1458 was obtained from ATCC (Manassas, Va.). Myoblasts were routinely maintained in Dulbecco's modified Eagle's medium (DMEM) containing 10% FBS and 0.1% penicillin-streptomycin at 37° C. and 5% CO2. Cells were subcultured into 24-well plates for protein synthesis, degradation, and cell viability studies and into 6-well plates for Western blot analyses (Greiner Bio One, Monroe, N.C.). Once cells reached 90% confluence, differentiation was induced by lowering the serum concentration to 2%, and medium was changed every 2 days. After 7-9 days of culture the myoblasts had fused into multinucleated myotubes (Mandel et al., Nature 251:618-620, 1974). NIH 3T3 murine embryonic fibroblast cell line (ATCC #CCL-92) was maintained in DMEM and 10% FBS at 37° C. in 5% CO2, and passaged every 3-4 days.
In various aspects, protein synthesis is measured to determine the effect of brassinosteroid on a particular protein. All known methods for measuring protein synthesis are included in the methods of the disclosure. In brassinosteroid dose response studies, fully differentiated myotubes were washed with serum-free DMEM and treated in triplicate with vehicle (0.1% ethanol), increasing concentrations of HB, or 6.5 nM of insulin-like growth factor-1 (IGF-1) as a positive control. Compounds were added to serum-free medium containing 0.5 μCi/mL [^3H]-phenylalanine and incubated for 4 h. For the HB time course study, fully differentiated myotubes were treated with 3 μM HB for 1-24 h using the same culture conditions. The incubation was stopped by placing cells on ice, discarding the medium, and washing the cells extensively with ice-cold PBS to remove the non-incorporated radiolabel. Proteins were precipitated with 5% trichloroacetic acid and dissolved in 0.5N NaOH (Montgomery et al., Methods Cell. Sci. 24:123-129, 2002). Specific radioactivity of protein-bound phenylalanine was quantified using liquid scintillation counter LS 6500 (Beckman Coulter, Fullerton, Calif.) and normalized to mg of total protein determined by BCA protein assay (Pierce Biotechnology, Rockford, Ill.).
The bioactivity of HB and its analogs was evaluated by measuring increases in protein synthesis in the L6 rat skeletal muscle cells in vitro. Cells were incubated for 4 h with [^3H]-phenylalanine and treated in triplicate with vehicle (0.1% ethanol) or test compound (10 μM), and protein synthesis was measured as incorporation of [^3H]-phenylalanine into protein normalized by total protein (Table 3). Under these conditions, both HB and (22S,23S)-homocastasterone increased protein synthesis by 37.2±5.9% (p<0.001) and 41.0±2.7% (p<0.001), respectively. This protein synthesis increase compared favorably to the biological activity of IGF-1 at 6.5 nM (42.5±4.5%, p<0.001) that served as a positive control in this assay. Removal of the 2α-hydroxyl group and fluorination at C-3 in the A ring (compound IDs 3-4 in Table 3) led to about a 50% decrease in bioactivity (24.6±5.3%, p<0.01 and 22.5±2.7%, p<0.01, respectively) compared to the positive control. However, there was still an increase in protein synthesis. […] Modifications in the side chain (compound IDs 7-9 in Table 3) abolished the activity.

[2] = system: NIH 3T3 murine fibroblast cell line; assay: Cytotoxicity, MTT assay in 3T3 fibroblasts; format: cell-based, mouse
Procedure: FIG. 9. Cell survival curves as measured by MTT assay for brassinosteroids 1-9 against the murine fibroblast cell line NIH-3T3. Cells were incubated with various concentrations of brassinosteroids (0.3-30 μM) for 24 h at 37° C. The mean absorbance of the control cells represented 100% cell proliferation, and the mean absorbance of treated cells was related to control values to determine sensitivity. Error bars represent standard error (n=6) from mean cell proliferation as determined by repeated experiments.
In various aspects, cell viability is measured and the effects of doses of compound and test reagents are tested in cell lines. In some aspects, cell viability was measured by the MTT (3-(4,5-Dimethylthiazol-2-yl)-2,5-diphenyltetrazolium bromide) assay in triplicate (Mosmann et al., J. Immunol. Methods 65:55-63, 1983) and quantified spectrophotometrically at 550 nm using a microplate reader (Molecular Devices, Sunnyvale, Calif.).
3T3 fibroblasts were seeded in a 96-well flat bottom plate at a density of 1×10^4 cells/well. Cell viability was measured by an MTT (3-(4,5-Dimethylthiazol-2-yl)-2,5-diphenyltetrazolium bromide) assay in triplicate (0.3-30 μM of test substance for […]) essentially as described by Mosmann (J. Immunol. Methods 65, 55-63, 1983) and quantified spectrophotometrically at 550 nm using a microplate reader (Molecular Devices, Sunnyvale, Calif.). […] For cell proliferation studies, cells were treated in triplicate with 0.1-10 μM of test substance for 24 h and assayed using a BrdU (5-bromo-2′-deoxyuridine) kit from Amersham (Uppsala, Sweden).

L6 rat myotubes [3] = assay: Protein degradation, release of acid-soluble [3H]-phenylalanine; format: cell-based; details: 10 μM; for Protein degradation (% decrease over control): 4 h
Procedure: as §1, with “After 7-9 days of culture the myoblasts had fused into multinucleated myotubes (Mandel et al., Nature 251:618-620, 1974).” left out
In various aspects, protein degradation is measured to determine the effect of brassinosteroid on a particular protein. All known methods for measuring protein degradation are included in the methods of the disclosure. The effect of brassinosteroids on protein degradation was investigated in fully differentiated myotubes as described by Fawcett et al. (Arch. Biochem. Biophys. 385:357-363, 2001) with slight modifications. Fully differentiated myotubes were incubated for 16 h to allow labeling of cellular proteins with 1.5 μCi/mL [^3H]-phenylalanine. […] The incubation was stopped by placing the cells on ice, and protein in the medium was precipitated with 5% trichloroacetic acid. Specific radioactivity of protein-free phenylalanine was quantified using liquid scintillation counter LS 6500 (Beckman Coulter, Fullerton, Calif.) and normalized to mg of total cell protein determined by BCA protein assay (Pierce Biotechnology, Rockford, Ill.).
The bioactivity of HB and its analogs (as shown in Table 3) were also evaluated by measuring decreases in protein degradation in the L6 rat skeletal muscle cells in vitro. Cells were labeled overnight with [^3H]-phenylalanine and subsequently treated for 4 h in triplicate with vehicle (0.1% ethanol) or test compound (10 μM), and protein degradation was assessed as release of acid-soluble [^3H]-phenylalanine into the media normalized by total protein (Table 3).

[4] = system: 3T3 Swiss fibroblast monolayers; assay: Scratch wound closure in vitro; format: cell-based, mouse; details: for Scratch wound closure at 5 μM, % of control: 12 h (Table 6); for Wound Closure (% over control): 10 μM, 12 h (Table 4)
Procedure: 3T3 fibroblasts were seeded into 24-well dishes at a concentration of 3×10^5 cells/ml and cultured to nearly confluent cell monolayers. On the day of the experiment, a linear wound was generated in the monolayer with a sterile 100 μl plastic pipette tip and any cellular debris was removed by washing cells once with sterile PBS. Fresh DMEM medium containing vehicle (0.1% ethanol), positive control (0.5% FBS), or various concentrations of the fractions, sub-fractions or pure compounds was added to a set of 3 wells per dose and incubated for 12 h at 37° C. with 5% CO2. Cells were then visualized with 20 μl of 10% methylene blue in PBS for 5 min. Three representative images of the scratched areas from each well were photographed at 0 and 12 h to estimate the scratch wound closure. Images were analyzed using ImageJ program (NIH, Bethesda, Md.) and % wound closure was calculated relative to vehicle control and was reported as wound closure % over control (Table 4). 3T3 Swiss fibroblast were seeded into 24-well tissue culture at a concentration of 3×10^5 cells/ml and cultured to nearly confluent cell monolayers. Then, a linear wound was generated in the monolayer with a sterile 100 μl plastic pipette tip. Any cellular debris was removed by washing with PBS. DMEM medium with vehicle (0.1% ethanol), FBS (1%, positive control), or various concentrations of brassinosteroids were added to a set of 3 wells per dose and incubated for 12 h at 37° C. with 5% CO2. Cells were visualized in 10% methylene blue for 5 minutes. Three representative images from each well of the scratched areas under each condition were photographed to estimate the relative migration of cells at 0 and 12 h post-treatment. Data were analyzed using ImageJ software available online from the National Institutes of Health (rsbweb.nih.gov/ij/) by calculating the percentage of scratch closure at each dose point relative to control.

[5] = system: orchiectomized (ORX) Wistar rats; assay: 10-d Hershberger assay in ORX rats, subcutaneous HB (Protocol 4); format: in vivo, rat; details: 0.4 mg/kg subcutaneous daily 10 d
Procedure: Protocol 4: Four-week-old sham-operated (sham, n=6) or orchiectomized (ORX, n=24) Wistar rats (Charles River Laboratories, MA) were subject to a 10-d Hershberger assay (surgically castrated peri-pubertal adult model) under the following experimental conditions: sham, ORX (vehicle), ORX (0.4 mg/kg HB subcutaneously), ORX (4 mg/kg HB subcutaneously), and ORX (0.4 mg/kg testosterone propionate subcutaneously, serving as a positive control for the assay). All procedures and measurements followed protocol 1. […]

[6] = system: orchiectomized (ORX) Wistar rats; format: in vivo, rat; details: ORX rats, 0.4 mg/kg subcutaneous 10 d, positive control of oral study
Procedure: Protocol 3: Four-week-old sham-operated (sham, n=6) or orchiectomized (ORX, n=24) Wistar rats (Charles River Laboratories, MA) were subject to a 10-d Hershberger assay (surgically castrated peri-pubertal adult model) under the following experimental conditions: sham, ORX (vehicle), ORX (20 mg/kg HB orally), ORX (60 mg/kg HB orally), and ORX (0.4 mg/kg testosterone propionate subcutaneously, serving as a positive control for the assay). All procedures and measurements followed protocol 1, except no body composition measurements were taken. Limb grip strength was measured for control animals and animals receiving 60 mg/kg HB using a digital force gauge (Wagner Instruments model FDV5) by Product Safety Laboratories (Dayton, N.J.). After the rats were allowed to grip the screen with paws, the animals were quickly pulled until the paws released from the screen, and the required release force was recorded. Three trials on each animal were performed in triplicate, and significance was determined using Student's t test (p<0.05). In addition to the gastrocnemius muscle, androgen-sensitive tissues (ventral prostate, seminal vesicles, bulbocavernosus/levator ani muscle complex, glans penis, and Cowper's gland) were dissected out and weighed.
The muscle samples for histochemical analysis were taken from the middle section of the mixed-fiber gastrocnemius muscle of the castrated animals treated according to protocol 4 (described herein above) to allow for the observation of differences in fiber type distribution and cross-section area associated with ORX and HB treatments. Serial transverse cryosections (10 μm) were prepared from each muscle and were analyzed for myofibrillar adenosine triphosphatase (mATPase) histochemistry after alkaline (pH=9.5) preincubation. Fiber cross-section area and enzyme activity levels were determined from digitized images of the muscle cross-sections that were stored as gray-level pictures using ImageJ software (National Institutes of Health, Bethesda, Md.). […]

Q: `CC[C@@H](C(C)C)[C@H](O)[C@@H](O)[C@@H](C)[C@H]1CC[C@H]2[C@@H]3COC(=O)[C@H]4C[C@H](F)CC[C@]4(C)[C@H]3CC[C@]12C` [Compound 3, (22S,23S,24S)-3α-fluoro-22,23-dihydroxy-24-ethyl-B-homo-7-oxa-5α-cholestan-6-one] was tested. Which “Protein synthesis (% increase over control)” value (L6 rat myotubes [1]) did it give?
A: 24.6±5.3%

Q: And the IC50 [2]?
A: ~30 µM

Q: And the “cytotoxicity compared to the original brassinosteroids” value [2]?
A: increased cytotoxicity

Q: What about the “Protein degradation (% decrease over control)” value (L6 rat myotubes [3]) of the same compound?
A: −20.8 ± 0.5 %

Q: What about the “Scratch wound closure at 5 μM, % of control” value [4] of the same compound?
A: 15.3 ± 2.6%

Q: And the “Wound Closure (% over control)” value [4]?
A: 15.3 ± 2.6%

Q: Which “effect of structural modification on activation of protein synthesis, in words” value (L6 rat myotubes [1]) does the source give for `CC[C@@H](C(C)C)[C@H](O)[C@@H](O)[C@@H](C)[C@H]1CC[C@H]2[C@@H]3CNC(=O)[C@H]4C[C@H](O)[C@H](O)C[C@]4(C)[C@H]3CC[C@]12C` [Compound 6, (22S,23S,24S)-2α,3α-22,23-tetrahydroxy-24-ethyl-B-homo-7-aza-5α-cholestan-6-one] here?
A: reduced biological activity by half

Q: What about the “Protein synthesis (% increase over control)” value (L6 rat myotubes [1]) of the same compound?
A: 20.9 ± 2.4 %

Q: What about the IC50 [2] of the same compound?
A: > 30 µM

Q: What about the “effect of structural modification on protein degradation activity, in words” value (L6 rat myotubes [3]) of the same compound?
A: completely abolished its effect on protein degradation

Q: And the “Protein degradation (% decrease over control)” value (L6 rat myotubes [3])?
A: −0.6 ± 2.9%

Q: And the “Scratch wound closure at 5 μM, % of control” value [4]?
A: 30.5 ± 4.2 %

Q: And the “Wound Closure (% over control)” value [4]?
A: 27.3 ± 3.6 %

Q: What about the “concentration of highest scratch wound closure activity” value ([4]; 0.1-10 μM, 12 h (FIG. 17)) of the same compound?
A: 3 µM

Q: Which results are given for `CCC(=O)O[C@H]1CC[C@H]2[C@@H]3CCC4=CC(=O)CC[C@]4(C)[C@H]3CC[C@]12C` [testosterone propionate, reference compound]?
A: Bulbocavernosus/levator ani weight [5]: 293.8 ± 19.0 mg; Cowper's gland weight [5]: 34.3 ± 1.9 mg; Glans penis weight [5]: 72.3 ± 4.5 mg; Seminal vesicles weight [5]: 228.7 ± 35.3 mg; Ventral prostate weight [5]: 92.8 ± 6.3 mg; Bulbocavernosus/levator ani weight [6]: 382.0 ± 22.0 mg; Cowper's gland weight [6]: 34.5 ± 4.7 mg; Glans penis weight [6]: 93.8 ± 4.2 mg; Seminal vesicles weight [6]: 262.5 ± 12.5 mg; Ventral prostate weight [6]: 110.50 ± 9.5 mg
